The record followed here is patent publication US9795140B2, “Molecules having pesticidal utility, and intermediates, compositions, and processes, related thereto” (priority 2015, dated 2017).

What all share (format): in vivo
Data set [1] concerns Cabbage Looper (Trichoplusia ni, TRIPNI). As to the kind of experiment: Bioassay on Cabbage Looper (CL), 128-well diet tray assay. The following applies: 168 h, 50 μg/cm^2 on artificial diet, second instar larvae, 25° C., five to seven days, average of eight wells, read-out: CL % Control (or Mortality) rating. The protocol: (§1) Certain molecules disclosed in this document were tested against BAW and CL using procedures described in the following examples. In the reporting of the results, the “BAW & CL Rating Table” was used (See Table Section).
Bioassays on CL were conducted using a 128-well diet tray assay, one to five second instar CL larvae were placed in each well (3 mL) of the diet tray that had been previously filled with 1 mL of artificial diet to which 50 μg/cm^2 of the test molecule (dissolved in 50 μL of 90:10 acetone-water mixture) had been applied (to each of eight wells) and then allowed to dry. Trays were covered with a clear self-adhesive cover, vented to allow gas exchange, and held at 25° C., 14:10 light-dark for five to seven days. Percent mortality was recorded for the larvae in each well; activity in the eight wells was then averaged. The results are indicated in the table entitled “Table ABC: Biological Results” (See Table Section).

For data set [2], the system named is Beet Armyworm (Spodoptera exigua, LAPHEG). In words: Bioassay on Beet Armyworm (BAW), 128-well diet tray assay. Conditions: 168 h, 50 μg/cm^2 on artificial diet, second instar larvae, 25° C., five to seven days, average of eight wells, read-out: BAW % Control (or Mortality) rating. The procedure:
as §1
Bioassays on BAW were conducted using a 128-well diet tray assay. One to five second instar BAW larvae were placed in each well (3 mL) of the diet tray that had been previously filled with approximately 1.5 mL of artificial diet to which 50 μg/cm^2 of the test molecule (dissolved in 50 μL of 90:10 acetone-water mixture) had been applied (to each of eight wells) and then allowed to dry. Trays were covered with a clear self-adhesive cover, vented to allow gas exchange, and held at 25° C., 14:10 light-dark for five to seven days. Percent mortality was recorded for the larvae in each well; activity in the eight wells was then averaged. The results are indicated in the table entitled “Table ABC: Biological Results” (See Table Section).

The test system of data set [3] is Yellow Fever Mosquito (Aedes aegypti, AEDSAE). In words: Bioassay on Yellow Fever Mosquito (YFM) larvae, 96-well plate. The following applies: about 1 day-old larvae, room temperature, 3 days, scored on mortality. The procedure: Certain molecules disclosed in this document were tested against YFM using procedures described in the following paragraph. In the reporting of the results, the “GPA & YFM Rating Table” was used (See Table Section).
Master plates containing 400 μg of a molecule dissolved in 100 μL of dimethyl sulfoxide (DMSO) (equivalent to a 4000 ppm solution) are used. A master plate of assembled molecules contains 15 μL per well. To this plate, 135 μL of a 90:10 water/acetone mixture is added to each well. A robot is programmed to dispense 15 μL aspirations from the master plate into an empty 96-well shallow plate (“daughter” plate). There are 6 reps (“daughter” plates) created per master. The created “daughter” plates are then immediately infested with YFM larvae.
The day before plates are to be treated, mosquito eggs are placed in Millipore water containing liver powder to begin hatching (4 g. into 400 mL). After the “daughter” plates are created using the robot, they are infested with 220 μL of the liver powder/larval mosquito mixture (about 1 day-old larvae). After plates are infested with mosquito larvae, a non-evaporative lid is used to cover the plate to reduce drying. Plates are held at room temperature for 3 days prior to grading. After 3 days, each well is observed and scored based on mortality. The results are indicated in the table entitled “Table ABC: Biological Results” (See Table Section).

Molecules are shown by their SMILES.

Regarding `CNC(=O)c1cc(NC(=O)[C@H]2[C@H](c3cc(Cl)cc(Cl)c3)C2(Cl)Cl)ccc1Cl` (relative stereo) [F1, trans-2-chloro-5-(2,2-dichloro-3-(3,5-dichlorophenyl)cyclopropane-1-carboxamido)-N-methylbenzamide], the mortality at 50 µg/cm2 in data set [1] and in data set [2] was 50 to 100% throughout. The “YFM % Control (or Mortality) rating” value in data set [3] is “A (80-100)”.

With `O=C(NCC(F)(F)F)c1cccc(NC(=O)[C@H]2[C@H](c3cc(Cl)cc(Cl)c3)C2(Cl)Cl)c1` (relative stereo) [F3, trans-3-(2,2-Dichloro-3-(3,5-dichlorophenyl)cyclopropane-1-carboxamido)-N-(2,2,2-trifluoroethyl)benzamide], the mortality at 50 µg/cm2 in data set [1] and in data set [2] was 50 to 100% each time. The “YFM % Control (or Mortality) rating” value in data set [3] is reported as “A (80-100)”.

For the molecule `O=C(CNC(=O)c1cc(NC(=O)[C@H]2[C@H](c3cc(Cl)cc(Cl)c3)C2(Cl)Cl)ccc1Cl)NCC(F)(F)F` (relative stereo) [F5, trans-2-Chloro-5-(2,2-dichloro-3-(3,5-dichlorophenyl)cyclopropane-1-carboxamido)-N-(2-oxo-2-((2,2,2-trifluoroethyl)amino)ethyl)benzamide], the mortality at 50 µg/cm2 in data set [1] and in data set [2] was 50 to 100% throughout.

Consider `O=C(NCc1cccnc1)c1cc(NC(=O)[C@H]2[C@H](c3cc(Cl)c(Cl)c(Cl)c3)C2(Cl)Cl)ccc1Cl` (relative stereo) [F7, trans-2-Chloro-5-(2,2-dichloro-3-(3,4,5-trichlorophenyl)cyclopropane-1-carboxamido)-N-(pyridin-3-ylmethyl)benzamide], for which the mortality at 50 µg/cm2 in data set [1] and in data set [2] was 50 to 100% each time. The “YFM % Control (or Mortality) rating” value in data set [3] is on record as “A (80-100)”.

Regarding `O=C(NCc1ccccn1)c1cc(NC(=O)[C@H]2[C@H](c3cc(Cl)cc(Cl)c3)C2(Cl)Cl)ccc1Cl` (relative stereo) [F8, trans-2-Chloro-5-(2,2-dichloro-3-(3,5-dichlorophenyl)cyclopropane-1-carboxamido)-N-(pyridin-2-ylmethyl)benzamide], the mortality at 50 µg/cm2 in data set [1] and in data set [2] was 50 to 100% each time.

`O=C(NCc1ccccn1)c1cc(NC(=O)[C@H]2[C@H](c3cc(Cl)c(Cl)c(Cl)c3)C2(Cl)Cl)ccc1Cl` (relative stereo) [F9, trans-2-Chloro-5-(2,2-dichloro-3-(3,4,5-trichlorophenyl)cyclopropane-1-carboxamido)-N-(pyridin-2-ylmethyl)benzamide]: the mortality at 50 µg/cm2 in data set [1] and in data set [2] was 50 to 100% each time.

As for `C=CCONC(=O)c1cc(NC(=O)[C@H]2[C@H](c3cc(Cl)cc(Cl)c3)C2(Cl)Cl)ccc1Cl` (relative stereo) [F10, trans-N-(Allyloxy)-2-chloro-5-(2,2-dichloro-3-(3,5-dichlorophenyl)cyclopropane-1-carboxamido)benzamide], the mortality at 50 µg/cm2 in data set [1] and in data set [2] was 50 to 100% each time.

For the molecule `C=CCONC(=O)c1cc(NC(=O)[C@H]2[C@H](c3cc(Cl)c(Cl)c(Cl)c3)C2(Cl)Cl)ccc1Cl` (relative stereo) [F11, trans-N-(Allyloxy)-2-chloro-5-(2,2-dichloro-3-(3,4,5-trichlorophenyl)cyclopropane-1-carboxamido)benzamide], the mortality at 50 µg/cm2 in data set [1] and in data set [2] was 50 to 100% each time.

`CN(C)CCCCNC(=O)c1cc(NC(=O)[C@H]2[C@H](c3cc(Cl)cc(Cl)c3)C2(Cl)Cl)ccc1Cl` (relative stereo) [F50, trans-2-Chloro-5-(2,2-dichloro-3-(3,5-dichlorophenyl)cyclopropane-1-carboxamido)-N-(4-(dimethylamino)butyl)benzamide]: the mortality at 50 µg/cm2 in data set [1] was 50 to 100%; in data set [2], 0%.

In the case of `O=C(NCCCl)c1cc(NC(=O)[C@H]2[C@H](c3cc(Cl)cc(Cl)c3)C2(Cl)Cl)ccc1Cl` (relative stereo) [F51, trans-2-Chloro-N-(2-chloroethyl)-5-(2,2-dichloro-3-(3,5-dichlorophenyl)cyclopropane-1-carboxamido)benzamide], the mortality at 50 µg/cm2 in data set [1] and in data set [2] was 50 to 100% each time. The “YFM % Control (or Mortality) rating” value in data set [3] is “B (More than 0-Less than 80)”.

Consider `CSCCNC(=O)c1cc(NC(=O)[C@H]2[C@H](c3cc(Cl)cc(Cl)c3)C2(Cl)Cl)ccc1Cl` (relative stereo) [F52, trans-2-Chloro-5-(2,2-dichloro-3-(3,5-dichlorophenyl)cyclopropane-1-carboxamido)-N-(2-(methylthio)ethyl)benzamide], for which the mortality at 50 µg/cm2 in data set [1] and in data set [2] was 50 to 100% each time. Also, the “YFM % Control (or Mortality) rating” value in data set [3] is recorded as “B (More than 0-Less than 80)”.

With `COCCNC(=O)c1cc(NC(=O)[C@H]2[C@H](c3cc(Cl)cc(Cl)c3)C2(Cl)Cl)ccc1Cl` (relative stereo) [F53, trans-2-Chloro-5-(2,2-dichloro-3-(3,5-dichlorophenyl)cyclopropane-1-carboxamido)-N-(2-methoxyethyl)benzamide], the mortality at 50 µg/cm2 in data set [1] and in data set [2] was 50 to 100% each time. Besides, in data set [3], the “YFM % Control (or Mortality) rating” value is recorded as “B (More than 0-Less than 80)”.

For the molecule `CCOCCNC(=O)c1cc(NC(=O)[C@H]2[C@H](c3cc(Cl)cc(Cl)c3)C2(Cl)Cl)ccc1Cl` (relative stereo) [F54, trans-2-Chloro-5-(2,2-dichloro-3-(3,5-dichlorophenyl)cyclopropane-1-carboxamido)-N-(2-ethoxyethyl)benzamide], the mortality at 50 µg/cm2 in data set [1] and in data set [2] was 50 to 100% in each case. Moreover, the “YFM % Control (or Mortality) rating” value in data set [3] is reported as “B (More than 0-Less than 80)”.

Take `C#CCN(C)C(=O)c1cc(NC(=O)[C@H]2[C@H](c3cc(Cl)cc(Cl)c3)C2(Cl)Cl)ccc1Cl` (relative stereo) [F65, trans-2-Chloro-5-(2,2-dichloro-3-(3,5-dichlorophenyl)cyclopropane-1-carboxamido)-N-methyl-N-(prop-2-yn-1-yl)benzamide]: the mortality at 50 µg/cm2 in data set [1] and in data set [2] was 50 to 100% in each case.

With `CN(CC#N)C(=O)c1cc(NC(=O)[C@H]2[C@H](c3cc(Cl)cc(Cl)c3)C2(Cl)Cl)ccc1Cl` (relative stereo) [F66, trans-2-Chloro-N-(cyanomethyl)-5-(2,2-dichloro-3-(3,5-dichlorophenyl)cyclopropane-1-carboxamido)-N-methylbenzamide], the mortality at 50 µg/cm2 in data set [1] and in data set [2] was 50 to 100% throughout.

Consider `C[S+]([O-])CCNC(=O)c1cc(NC(=O)[C@H]2[C@H](c3cc(Cl)cc(Cl)c3)C2(Cl)Cl)ccc1Cl` (relative stereo) [F74, trans-2-chloro-5-(2,2-dichloro-3-(3,5-dichlorophenyl)cyclopropane-1-carboxamido)-N-(2-(methylsulfinyl)ethyl)benzamide], for which the mortality at 50 µg/cm2 in data set [1] and in data set [2] was 50 to 100% each time.

In the case of `O=C(NCC(F)(F)F)c1cc(NC(=O)[C@H]2[C@H](c3cc(Cl)cc(Cl)c3)C2(Cl)Cl)cc(Cl)c1Cl` (relative stereo) [F93, trans-2,3-Dichloro-5-(2,2-dichloro-3-(3,5-dichlorophenyl)cyclopropane-1-carboxamido)-N-(2,2,2-trifluoroethyl)benzamide], the mortality at 50 µg/cm2 in data set [1] and in data set [2] was 50 to 100% each time.

Take `O=C(NCC(F)(F)F)c1cc(NC(=O)C2C(c3cc(F)c(F)c(F)c3)C2(Cl)Cl)ccc1Cl` (stereo not drawn) [F127, 2-Chloro-5-cis-(2,2-dichloro-3-(3,4,5-trifluorophenyl)cyclopropane-1-carboxamido)-N-(2,2,2-trifluoroethyl)benzamide]: the “YFM % Control (or Mortality) rating” value in data set [3] is “A (80-100)”.

As usually defined, the mortality is the percentage killed.
